Measured values taken from ChEMBL document CHEMBL3751693, “Synthesis, antimicrobial evaluation and molecular modeling of 5-hydroxyisoquinolinium salt series; the effect of the hydroxyl moiety” (Bioorg Med Chem, 2016).
pIC50: −log10 of the molar value.

What was measured:
[1] = system: Pichia kudriavzevii; test: Antimicrobial activity against Candida krusei E28 after 48 hrs by spectrophotometry; format: functional; conditions: E28, 48 h
[2] = system: Klebsiella pneumoniae; test: Antimicrobial activity against clinical isolate Klebsiella pneumoniae D 1175008 after 24 hrs; format: functional; conditions: D 1175008, 24 h
[3] = system: Nakaseomyces glabratus; test: Antimicrobial activity against Candida glabrata 20/I after 48 hrs by spectrophotometry; format: functional
[4] = system: Candida tropicalis; test: Antimicrobial activity against Candida tropicalis 156 after 48 hrs by spectrophotometry; format: functional; conditions: Candida tropicalis, 156, 48 h
[5] = system: Staphylococcus aureus; test: Antimicrobial activity against clinical isolate methicillin-resistant Staphylococcus aureus H 599608 after 48 hrs; format: functional; conditions: H 599608, 48 h
[6] = system: Trichophyton mentagrophytes; test: Antimicrobial activity against Trichophyton mentagrophytes 445 after 120 hrs by spectrophotometry; format: functional; conditions: Trichophyton mentagrophytes, 445, 120 h
[7] = system: Staphylococcus aureus; test: Antimicrobial activity against clinical isolate Staphylococcus aureus CCM 451608 after 24 hrs; format: functional; conditions: CCM 451608, 24 h
[8] = system: Pseudomonas aeruginosa; test: Antimicrobial activity against clinical isolate Pseudomonas aeruginosa CCM 1961 after 120 hrs; format: functional; conditions: CCM 1961, 120 h
[9] = system: Enterococcus sp.; test: Antimicrobial activity against clinical isolate Enterococcus sp. J 1436508 after 24 hrs; format: functional; conditions: J 1436508, 24 h
[10] = system: Trichophyton mentagrophytes; test: Antimicrobial activity against Trichophyton mentagrophytes 445 after 72 hrs by spectrophotometry; format: functional; conditions: Trichophyton mentagrophytes, 445, 72 h
[11] = system: Klebsiella pneumoniae; test: Antimicrobial activity against clinical isolate Klebsiella pneumoniae D 1175008 after 48 hrs; format: functional; conditions: D 1175008, 48 h
[12] = system: Aspergillus fumigatus; test: Antimicrobial activity against Aspergillus fumigatus 231 after 48 hrs by spectrophotometry; format: functional; conditions: Aspergillus fumigatus, 231, 48 h
[13] = system: Candida albicans; test: Antimicrobial activity against Candida albicans ATCC 44859 after 24 hrs by spectrophotometry; format: functional; conditions: ATCC 44859, 24 h
[14] = system: Aspergillus fumigatus; test: Antimicrobial activity against Aspergillus fumigatus 231 after 24 hrs by spectrophotometry; format: functional; conditions: Aspergillus fumigatus, 231, 24 h
[15] = Cytotoxicity against CHOK1 cells after 24 hrs by MTT assay; format: cell-based; conditions: Cricetulus griseus, CHO-K1, 24 h
[16] = system: Trichosporon asahii; test: Antimicrobial activity against Trichosporon asahii 1188 after 24 hrs by spectrophotometry; format: functional; conditions: Trichosporon asahii, 1188, 24 h
[17] = system: Staphylococcus aureus; test: Antimicrobial activity against clinical isolate Staphylococcus aureus CCM 451608 after 48 hrs; format: functional; conditions: CCM 451608, 48 h
[18] = system: Staphylococcus epidermidis; test: Antimicrobial activity against clinical isolate Staphylococcus epidermidis H 696608 after 24 hrs; format: functional; conditions: H 696608, 24 h
[19] = system: Staphylococcus epidermidis; test: Antimicrobial activity against clinical isolate Staphylococcus epidermidis H 696608 after 48 hrs; format: functional; conditions: H 696608, 48 h
[20] = system: Lichtheimia corymbifera; test: Antimicrobial activity against Absidia corymbifera 272 after 24 hrs by spectrophotometry; format: functional; conditions: Lichtheimia corymbifera, 272, 24 h
[21] = system: Candida albicans; test: Antimicrobial activity against Candida albicans ATCC 44859 after 48 hrs by spectrophotometry; format: functional; conditions: ATCC 44859, 48 h
[22] = system: Lichtheimia corymbifera; test: Antimicrobial activity against Absidia corymbifera 272 after 48 hrs by spectrophotometry; format: functional; conditions: Lichtheimia corymbifera, 272, 48 h
[23] = system: Trichosporon asahii; test: Antimicrobial activity against Trichosporon asahii 1188 after 48 hrs by spectrophotometry; format: functional; conditions: Trichosporon asahii, 1188, 48 h
[24] = system: Klebsiella pneumoniae; test: Antimicrobial activity against clinical isolate ESBL-Klebsiella pneumoniae J 1436808 after 48 hrs; format: functional; conditions: J 1436808, 48 h
[25] = system: Staphylococcus aureus; test: Antimicrobial activity against clinical isolate methicillin-resistant Staphylococcus aureus H 599608 after 24 hrs; format: functional; conditions: H 599608, 24 h
[26] = system: Pichia kudriavzevii; test: Antimicrobial activity against Candida krusei E28 after 24 hrs by spectrophotometry; format: functional; conditions: E28, 24 h
[27] = system: Klebsiella pneumoniae; test: Antimicrobial activity against clinical isolate ESBL-Klebsiella pneumoniae J 1436808 after 24 hrs; format: functional; conditions: J 1436808, 24 h
[28] = system: Candida tropicalis; test: Antimicrobial activity against Candida tropicalis 156 after 24 hrs by spectrophotometry; format: functional; conditions: Candida tropicalis, 156, 24 h
[29] = system: Pseudomonas aeruginosa; test: Antimicrobial activity against clinical isolate Pseudomonas aeruginosa CCM 1961 after 72 hrs; format: functional; conditions: CCM 1961, 72 h
[30] = system: Escherichia coli; test: Antimicrobial activity against clinical isolate Escherichia coli CCM 4517 after 24 hrs; format: functional; conditions: CCM 4517, 24 h
[31] = system: Nakaseomyces glabratus; test: Antimicrobial activity against Candida glabrata 20/I after 24 hrs by spectrophotometry; format: functional
[32] = system: Enterococcus sp.; test: Antimicrobial activity against clinical isolate Enterococcus sp. J 1436508 after 48 hrs; format: functional; conditions: J 1436508, 48 h
[33] = system: Escherichia coli; test: Antimicrobial activity against clinical isolate Escherichia coli CCM 4517 after 48 hrs; format: functional; conditions: CCM 4517, 48 h

CCCCCCCCCCCC[n+]1ccc2c(O)cccc2c1
MFC [1]: 7.8 µM
MIC [1]: 7.8 µM
MIC [2]: 63 µM
MFC [3]: 7.8 µM
MIC [3]: 3.9 µM
MFC [4]: 63 µM
MIC [4]: 31 µM
MBC [5]: 3.9 µM
MIC [5]: 3.9 µM
MFC [6]: 63 µM
MIC [6]: 31 µM
MIC [7]: 1 µM
MBC [8]: 63 µM
MIC [8]: 63 µM
MIC [9]: 63 µM
MIC [10]: 31 µM
MBC [11]: 63 µM
MIC [11]: 63 µM
MFC [12]: 250 µM
MIC [12]: 31 µM
MIC [13]: 63 µM
MIC [14]: 31 µM
pIC50 [15]: 4.44
MIC [16]: 31 µM
MBC [17]: 2 µM
MIC [17]: 1 µM
MIC [18]: 3.9 µM
MBC [19]: 3.9 µM
MIC [19]: 3.9 µM
MIC [20]: 125 µM
MFC [21]: 63 µM
MIC [21]: 63 µM
MFC [22]: 250 µM
MIC [22]: 125 µM
MFC [23]: 31 µM
MIC [23]: 31 µM
MBC [24]: 63 µM
MIC [24]: 63 µM
MIC [25]: 3.9 µM
MIC [26]: 7.8 µM
MIC [27]: 63 µM
MIC [28]: 31 µM
MIC [29]: 63 µM
MIC [30]: 250 µM
MIC [31]: 3.9 µM
MBC [32]: 63 µM
MIC [32]: 63 µM
MBC [33]: 250 µM
MIC [33]: 250 µM

CCCCCCCCCCCCCCCC[n+]1ccc2c(O)cccc2c1
MFC [1]: 7.8 µM
MIC [1]: 7.8 µM
MIC [2]: > 500 µM
MFC [3]: 3.9 µM
MIC [3]: 3.9 µM
MFC [4]: 7.8 µM
MIC [4]: 7.8 µM
MBC [5]: 0.5 µM
MIC [5]: 0.5 µM
MFC [6]: 125 µM
MIC [6]: 16 µM
MIC [7]: 0.5 µM
MBC [8]: > 500 µM
MIC [8]: > 500 µM
MIC [9]: 63 µM
MIC [10]: 16 µM
MBC [11]: > 500 µM
MIC [11]: > 500 µM
MFC [12]: > 500 µM
MIC [12]: > 500 µM
MIC [13]: 16 µM
MIC [14]: > 500 µM
pIC50 [15]: 4.80
MIC [16]: 63 µM
MBC [17]: 0.5 µM
MIC [17]: 0.5 µM
MIC [18]: 63 µM
MBC [19]: 63 µM
MIC [19]: 63 µM
MIC [20]: > 500 µM
MFC [21]: 125 µM
MIC [21]: 16 µM
MFC [22]: > 500 µM
MIC [22]: > 500 µM
MFC [23]: 125 µM
MIC [23]: 63 µM
MBC [24]: > 500 µM
MIC [24]: 500 µM
MIC [25]: 0.5 µM
MIC [26]: 7.8 µM
MIC [27]: > 500 µM
MIC [28]: 7.8 µM
MIC [29]: > 500 µM
MIC [30]: > 500 µM
MIC [31]: 3.9 µM
MBC [32]: 63 µM
MIC [32]: 63 µM
MBC [33]: > 500 µM
MIC [33]: > 500 µM

CCCCCCCCCCCC[n+]1ccc2ccccc2c1 [LAURYL ISOQUINOLINIUM BROMIDE]
MFC [1]: 1 µM
MIC [1]: 0.5 µM
MIC [2]: 16 µM
MFC [3]: 1 µM
MIC [3]: 0.5 µM
MFC [4]: 1 µM
MIC [4]: 0.5 µM
MBC [5]: 1 µM
MIC [5]: 0.5 µM
MFC [6]: 16 µM
MIC [6]: 7.8 µM
MIC [7]: 0.5 µM
MBC [8]: 250 µM
MIC [8]: 250 µM
MIC [9]: 7.8 µM
MIC [10]: 7.8 µM
MBC [11]: 63 µM
MIC [11]: 16 µM
MFC [12]: 125 µM
MIC [12]: 125 µM
MIC [13]: 0.5 µM
MIC [14]: 125 µM
pIC50 [15]: 4.82
MIC [16]: 63 µM
MBC [17]: 1 µM
MIC [17]: 0.5 µM
MIC [18]: 0.5 µM
MBC [19]: 1 µM
MIC [19]: 0.5 µM
MIC [20]: 250 µM
MFC [21]: 1 µM
MIC [21]: 0.5 µM
MFC [22]: 250 µM
MIC [22]: 250 µM
MFC [23]: 63 µM
MIC [23]: 63 µM
MBC [24]: 125 µM
MIC [24]: 63 µM
MIC [25]: 0.5 µM
MIC [26]: 0.5 µM
MIC [27]: 63 µM
MIC [28]: 0.5 µM
MIC [29]: 250 µM
MIC [30]: 7.8 µM
MIC [31]: 0.5 µM
MBC [32]: 63 µM
MIC [32]: 7.8 µM
MBC [33]: 31 µM
MIC [33]: 7.8 µM
